Data taken from article PMC12504763, “Antiproliferation, 3D-multicellular spheroid and VEGFR-2 inhibitory properties of spiroindolin-2-ones with phosphonate function” (Scientific Reports, 2025).
Like-named read-outs stand apart in the source and are kept apart here.

Experiments:
TNF-α [1] = test: TNF-α inhibitory properties (ELISA), MCF7 cell lysate; type: cell-based, human; conditions: at 10 μM; for TNF-α pg/mL (± SEM) MCF7: control 83.26 ± 1.1
[2] = system: MCF7 (breast) cancer cell line; test: 2D-monolayer antiproliferation (MTT) against MCF7; type: cell-based, human; conditions: for IC50: Homo sapiens, MTT, 72 h incubation, MCF7 breast, read-out: IC50, μM ± SEM MCF7; for SI (selectivity index) MCF7: IC50 of RPE1 normal cell/IC50 of MCF7
COX-2 = biological target: T1, COX-2 (Homo sapiens, UniProt P35354); test: biochemical; conditions: for inhibition at 10 µM: 3 replicates, read-out: % Inhibition of COX-2 ± SEM; for SI (selectivity index, COX-2/COX-1): at 10 μM
T1 construct: purchased BioVision incorporated USA K548–100
T1 sequence (P35354 18-604): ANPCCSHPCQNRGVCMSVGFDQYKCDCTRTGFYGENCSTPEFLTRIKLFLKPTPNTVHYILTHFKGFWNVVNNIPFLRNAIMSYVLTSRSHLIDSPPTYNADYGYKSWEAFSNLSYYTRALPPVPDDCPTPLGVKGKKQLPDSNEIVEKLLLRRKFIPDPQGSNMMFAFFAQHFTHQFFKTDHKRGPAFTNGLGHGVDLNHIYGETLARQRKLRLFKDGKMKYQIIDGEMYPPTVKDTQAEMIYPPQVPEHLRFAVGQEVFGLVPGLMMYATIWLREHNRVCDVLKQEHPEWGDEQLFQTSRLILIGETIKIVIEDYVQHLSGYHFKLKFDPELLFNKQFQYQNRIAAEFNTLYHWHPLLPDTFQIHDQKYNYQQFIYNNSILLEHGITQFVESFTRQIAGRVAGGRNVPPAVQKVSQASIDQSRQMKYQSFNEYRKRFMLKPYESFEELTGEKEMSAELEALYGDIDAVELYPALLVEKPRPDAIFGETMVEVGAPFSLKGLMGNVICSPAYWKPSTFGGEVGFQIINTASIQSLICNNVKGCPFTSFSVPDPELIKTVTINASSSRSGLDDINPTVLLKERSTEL

VEGFR-2 [3] = biological target: T2, VEGFR-2 (Homo sapiens, UniProt P35968); test: cell-based; type: cell-based; conditions: for inhibition at 10 µM: HCT-116, HCT116; for VEGFR-2 pg/mL ± SEM HCT116: at 10 μM, control 317.80 ± 3.5
T2 construct: endogenous in cells; host or cells: HCT116, PaCa2, MCF7 (human cancer cell lines, ATCC origin)

[4] = system: HCT116 (colon) cancer cell line; test: 2D-monolayer antiproliferation (MTT) against HCT116; type: cell-based, human; conditions: for IC50: Homo sapiens, HCT-116; for SI (selectivity index) HCT116: IC50 of RPE1 normal cell/IC50 of HCT116
VEGFR-2 [5] = biological target: T2, VEGFR-2; test: cell-based; type: cell-based; conditions: for inhibition at 10 µM: PaCa-2, PaCa2; for VEGFR-2 pg/mL ± SEM PaCa2: at 10 μM, control 326.80 ± 1.9
[6] = system: PaCa2 (pancreatic) cancer cell line; test: 2D-monolayer antiproliferation (MTT) against PaCa2; type: cell-based, human; conditions: for 1/(observed property): 1/observed IC50 (μM), PaCa2; for IC50: Homo sapiens, PaCa-2, MTT, 72 h incubation, PaCa2 pancreatic, read-out: IC50, μM ± SEM PaCa2; for SI (selectivity index) PaCa2: IC50 of RPE1 normal cell/IC50 of PaCa2
COX-1 = biological target: T3, COX-1 (Ovis aries, UniProt P05979); test: biochemical; conditions: 3 replicates, read-out: % Inhibition of COX-1 ± SEM
T3 construct: purchased BioVision incorporated USA K548–100
T3 sequence (P05979 25-600): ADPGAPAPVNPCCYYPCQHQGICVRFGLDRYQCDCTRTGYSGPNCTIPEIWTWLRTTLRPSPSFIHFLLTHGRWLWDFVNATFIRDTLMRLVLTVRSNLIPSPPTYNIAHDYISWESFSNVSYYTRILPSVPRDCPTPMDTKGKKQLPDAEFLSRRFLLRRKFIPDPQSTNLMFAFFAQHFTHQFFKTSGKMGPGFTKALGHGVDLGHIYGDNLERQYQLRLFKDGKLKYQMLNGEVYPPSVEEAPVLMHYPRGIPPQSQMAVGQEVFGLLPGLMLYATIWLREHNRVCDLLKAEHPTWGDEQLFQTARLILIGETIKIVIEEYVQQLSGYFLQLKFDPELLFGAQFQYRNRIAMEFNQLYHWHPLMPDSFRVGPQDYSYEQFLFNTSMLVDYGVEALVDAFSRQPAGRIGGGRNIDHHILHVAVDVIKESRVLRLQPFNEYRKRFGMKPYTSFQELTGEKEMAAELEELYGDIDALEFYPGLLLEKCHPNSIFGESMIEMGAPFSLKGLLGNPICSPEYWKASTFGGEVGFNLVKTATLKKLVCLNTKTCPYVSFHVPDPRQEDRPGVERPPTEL

VEGFR-2 [7] = biological target: T2, VEGFR-2; test: cell-based; type: cell-based; conditions: for inhibition at 10 µM: MCF7; for VEGFR-2 pg/mL ± SEM MCF7: at 10 μM, control 258.70 ± 2.3
[8] = system: RPE1 (normal human immortalized retinal pigment epithelial cell line); test: cells; type: cell-based; conditions: for IC50: Homo sapiens, RPE-1, MTT, normal RPE1 cell, read-out: IC50, μM ± SEM RPE1; for selectivity index (SI): IC50 against RPE1 compared to the tested cancer cell line(s), in words
TNF-α [9] = test: TNF-α inhibitory properties (ELISA), HCT116 cell lysate; type: cell-based, human; conditions: at 10 μM; for TNF-α pg/mL (± SEM) HCT116: control 95.74 ± 0.5
TNF-α [10] = test: TNF-α inhibitory properties (ELISA), PaCa2 cell lysate; type: cell-based, human; conditions: at 10 μM; for TNF-α pg/mL (± SEM) PaCa2: control 111.8 ± 2.0
[11] = system: A549 (lung) cancer cell line; test: 2D-monolayer antiproliferation (MTT) against A549; type: cell-based, human; conditions: for IC50: Homo sapiens, MTT, 72 h incubation, A549 lung, read-out: IC50, μM ± SEM A549; for SI (selectivity index) A549: IC50 of RPE1 normal cell/IC50 of A549
[12] = MTT, 72 h incubation, HCT116 colon, read-out: IC50, μM ± SEM HCT116
[13] = log of observed IC50 (μM), HCT116, read-out: Log(observed property) (converted)

T2 sequence (P35968 20-1356): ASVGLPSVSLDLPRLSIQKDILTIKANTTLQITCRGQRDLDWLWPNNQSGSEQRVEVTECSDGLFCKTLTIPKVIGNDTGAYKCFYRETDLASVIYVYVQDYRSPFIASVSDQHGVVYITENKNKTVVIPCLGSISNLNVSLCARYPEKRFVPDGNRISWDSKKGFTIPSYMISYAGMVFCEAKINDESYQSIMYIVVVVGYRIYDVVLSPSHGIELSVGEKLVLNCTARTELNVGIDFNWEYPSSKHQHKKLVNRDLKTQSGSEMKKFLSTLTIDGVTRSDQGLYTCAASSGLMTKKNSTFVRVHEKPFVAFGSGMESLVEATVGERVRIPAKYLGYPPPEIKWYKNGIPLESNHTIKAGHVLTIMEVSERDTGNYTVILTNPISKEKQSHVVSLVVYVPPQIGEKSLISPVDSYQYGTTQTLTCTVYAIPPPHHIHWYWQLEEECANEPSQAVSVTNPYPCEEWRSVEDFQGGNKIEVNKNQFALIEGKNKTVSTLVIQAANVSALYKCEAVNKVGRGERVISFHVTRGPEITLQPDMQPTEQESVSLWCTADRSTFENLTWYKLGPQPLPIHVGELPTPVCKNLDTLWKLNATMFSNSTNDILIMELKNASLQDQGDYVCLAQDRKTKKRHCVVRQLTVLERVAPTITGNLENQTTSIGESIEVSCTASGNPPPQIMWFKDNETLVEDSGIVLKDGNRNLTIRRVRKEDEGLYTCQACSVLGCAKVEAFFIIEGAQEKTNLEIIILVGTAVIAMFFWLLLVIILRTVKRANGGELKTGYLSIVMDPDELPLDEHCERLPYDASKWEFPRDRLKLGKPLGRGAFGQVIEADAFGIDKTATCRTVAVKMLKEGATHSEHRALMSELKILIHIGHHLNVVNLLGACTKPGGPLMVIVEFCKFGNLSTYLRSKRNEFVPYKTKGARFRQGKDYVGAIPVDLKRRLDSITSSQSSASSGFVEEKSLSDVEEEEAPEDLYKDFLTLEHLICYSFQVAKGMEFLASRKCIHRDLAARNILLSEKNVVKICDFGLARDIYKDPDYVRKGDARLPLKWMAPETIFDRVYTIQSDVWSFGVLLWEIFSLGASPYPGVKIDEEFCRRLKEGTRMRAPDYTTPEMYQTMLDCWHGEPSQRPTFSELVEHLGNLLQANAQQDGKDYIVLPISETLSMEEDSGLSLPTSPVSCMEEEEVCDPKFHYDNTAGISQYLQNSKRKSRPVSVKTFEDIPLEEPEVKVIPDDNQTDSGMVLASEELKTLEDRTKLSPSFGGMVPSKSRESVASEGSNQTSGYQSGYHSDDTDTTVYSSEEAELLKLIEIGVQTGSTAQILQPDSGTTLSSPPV

SMILES | TNF-α % inhibition MCF7 (TNF-α [1]) [%] | TNF-α pg/mL (± SEM) MCF7 (TNF-α [1]) [pg/mL] | IC50 [2] [µM] | SI (selectivity index) MCF7 [2] | inhibition at 10 µM (COX-2) [%] | inhibition at 10 µM (VEGFR-2 [3]) [%] | VEGFR-2 pg/mL ± SEM HCT116 (VEGFR-2 [3]) [pg/mL] | IC50 [4, 12] [µM] | SI (selectivity index) HCT116 [4] | inhibition at 10 µM (VEGFR-2 [5]) [%] | VEGFR-2 pg/mL ± SEM PaCa2 (VEGFR-2 [5]) [pg/mL] | 1/(observed property) [6] | IC50 [6] [µM] | SI (selectivity index) PaCa2 [6] | inhibition at 10 µM (COX-1) [%] | inhibition at 10 µM (VEGFR-2 [7]) [%] | VEGFR-2 pg/mL ± SEM MCF7 (VEGFR-2 [7]) [pg/mL] | IC50 [8] [µM] | TNF-α % inhibition HCT116 (TNF-α [9]) [%] | TNF-α pg/mL (± SEM) HCT116 (TNF-α [9]) [pg/mL] | also measured
CCOP(=O)(OCC)N1C/C(=C\c2ccc(Cl)cc2)C(=O)C2(C1)C(c1ccc(Cl)cc1)CN(C)C21C(=O)Nc2ccc(Cl)cc21 (stereo not shown) [Compound 17j, Diethyl (E)-[5-chloro-5′′-(4-chlorobenzylidene)-4′-(4-chlorophenyl)-1′-methyl-2,4′′-dioxodispiro[indoline-3,2′-pyrrolidine-3′,3′′-piperidin]-1′′-yl]phosphonate] | 0.5 | 82.87 ± 4.5 | 3.87 ± 0.102 | > 12.9 | 53.5 ± 2.3 | 80.3 | 62.50 ± 0.7 | 3.487 ± 0.033 | > 14.3 | 92.4 | 24.78 ± 0.3 | 0.1443 | 6.93 ± 0.337 | > 7.2 | 48.9 ± 1.5 | 82.7 | 44.80 ± 0.6 | > 50 | 14.6 | 81.78 ± 1.4 | SI (selectivity index, COX-2/COX-1) (COX-2): 1.05; IC50 [4, 13]: 3.49 µM; selectivity index (SI) [8]: high selectivity index; TNF-α % inhibition PaCa2 (TNF-α [10]): 11.9%; TNF-α pg/mL (± SEM) PaCa2 (TNF-α [10]): 98.5 ± 3.1 pg/mL; IC50 [11]: 6.06 ± 0.157 µM; SI (selectivity index) A549 [11]: > 8.3
CCOP(=O)(OCC)N1C/C(=C\c2cccs2)C(=O)C2(C1)C(c1cccs1)CN(C)C21C(=O)Nc2ccc(C)cc21 (stereo not shown) [Compound 17t, Diethyl (E)-(1′,5-dimethyl-2,4′′-dioxo-4′-(thiophen-2-yl)-5′′-(thiophen-2-ylmethylene)dispiro[indoline-3,2′-pyrrolidine-3′,3′′-piperidin]-1′′-yl)phosphonate] | 0.4 | 82.91 ± 3.8 | 6.45 ± 0.111 | 3.9 | 63.7 ± 1.7 | 60.8 | 124.70 ± 1.3 | 7.34 ± 0.161 | 3.5 | 64.8 | 115.00 ± 0.9 | 0.1056 | 9.47 ± 0.097 | 2.7 | 49.2 ± 1.9 | 62.6 | 96.70 ± 1.2 | 25.4 ± 0.951 | 14.7 | 81.64 ± 2.1 | SI (selectivity index, COX-2/COX-1) (COX-2): 1.29; TNF-α % inhibition PaCa2 (TNF-α [10]): 14.3%; TNF-α pg/mL (± SEM) PaCa2 (TNF-α [10]): 95.8 ± 2.5 pg/mL; IC50 [11]: 14.1 ± 0.201 µM; SI (selectivity index) A549 [11]: 1.8
CCOP(=O)(OCC)N1C/C(=C\c2ccc(F)cc2)C(=O)C2(C1)C(c1ccc(F)cc1)CN(C)C21C(=O)Nc2ccc(Cl)cc21 (stereo not shown) [Compound 17f, Diethyl (E)-[5-chloro-5′′-(4-fluorobenzylidene)-4′-(4-fluorophenyl)-1′-methyl-2,4′′-dioxodispiro[indoline-3,2′-pyrrolidine-3′,3′′-piperidin]-1′′-yl]phosphonate] | 1.0 | 82.45 ± 4.0 | 5.29 ± 0.175 | 7.5 | 60.8 ± 2.7 | 86.2 | 43.70 ± 0.9 | 3.72 ± 0.099 | 10.7 | 91.6 | 27.53 ± 1.1 | 0.1904 | 5.25 ± 0.224 | 7.6 | 57.6 ± 1.1 | 75.6 | 63.20 ± 0.9 | 39.9 ± 1.16 | 10.7 | 85.46 ± 1.3 | SI (selectivity index, COX-2/COX-1) (COX-2): 1.01; activity fold of sunitinib [6]: 3.2 fold; selectivity index (SI) [8]: high selectivity index; TNF-α pg/mL (± SEM) PaCa2 (TNF-α [10]): 109.8 ± 4.7 pg/mL; IC50 [11]: > 50 µM; SI (selectivity index) A549 [11]: < 0.8
CCOP(=O)(OCC)N1C/C(=C\c2ccc(F)cc2)C(=O)C2(C1)C(c1ccc(F)cc1)CN(C)C21C(=O)Nc2ccc(C)cc21 (stereo not shown) [Compound 17g, Diethyl (E)-(5′′-(4-fluorobenzylidene)-4′-(4-fluorophenyl)-1′,5-dimethyl-2,4′′-dioxodispiro[indoline-3,2′-pyrrolidine-3′,3′′-piperidin]-1′′-yl)phosphonate] | 0.3 | 83.0 ± 3.2 | 5.43 ± 0.152 | 3.5 | 51.8 ± 2.8 | 69 | 98.40 ± 1.2 | 5.01 ± 0.364 | 3.8 | 77.7 | 72.80 ± 0.9 | 0.1641 | 6.09 ± 0.132 | 3.1 | 62.1 ± 3.1 | 75 | 64.80 ± 0.5 | 19 ± 0.647 | 14.6 | 81.75 ± 2.1 | IC50 [4, 13]: 5.01 µM; TNF-α % inhibition PaCa2 (TNF-α [10]): 12.9%; TNF-α pg/mL (± SEM) PaCa2 (TNF-α [10]): 97.4 ± 3.6 pg/mL; IC50 [11]: 8.15 ± 0.277 µM; SI (selectivity index) A549 [11]: 2.3
